Reference: ChEMBL document CHEMBL3259687, “Synthesis and identification of chiral aminomethylpiperidine carboxamides as inhibitor of collagen induced platelet activation” (Eur J Med Chem, 2014)
Active and inactive are the calls of the source. The calls are words filed in the database; no cut-off is given here.

How the values were obtained:
Platelet [1] = assay: Antiplatelet activity in human platelet-rich plasma assessed as inhibition of TRAP-induced platelet aggregation treated for 5 mins prior to TRAP challenge for 5 mins by turbidimetric method; type: functional, cell-free
Platelet [2] = assay: Antiplatelet activity in human platelet-rich plasma assessed as inhibition of ADP-induced platelet aggregation treated for 5 mins prior to ADP challenge for 5 mins by turbidimetric method; type: functional, cell-free
[3] = Antiplatelet activity in human platelet-rich plasma assessed as inhibition of collagen-induced platelet aggregation at 10 uM treated for 5 mins prior to collagen challenge for 5 mins by turbidimetric method; type: functional
[4] = (§1) Antiplatelet activity in human platelet-rich plasma assessed as inhibition of collagen-induced platelet aggregation treated for 5 mins prior to collagen challenge for 5 mins by turbidimetric method; type: functional, cell-free; details: for IC50: Homo sapiens, Platelet, Plasma
Mus musculus [5] = assay: Antithrombotic activity in mouse assessed as protection against collagen-epinephrine-induced pulmonary thromboembolism at 30 uM/kg, po administered 60 mins prior to thrombotic challenge; type: functional
Mus musculus [6] = assay: Antithrombotic activity in mouse assessed as protection against collagen-epinephrine-induced pulmonary thromboembolism at 30 uM/kg, po administered 60 mins prior to thrombotic challenge measured for up to 12 hrs post-drug dose; type: functional, organism-based
Platelet [7] = assay: Antiplatelet activity in human platelet-rich plasma assessed as inhibition of ristocetin-induced platelet aggregation treated for 5 mins prior to ristocetin challenge for 5 mins by turbidimetric method; type: functional, cell-free
Platelet [8] = assay: as §1; type: functional, cell-free
[9] = (§2) Antiplatelet activity in human platelet-rich plasma assessed as inhibition of U46619-induced platelet aggregation treated for 5 mins prior to U46619 challenge for 5 mins by turbidimetric method; type: functional, cell-free; details: for IC50: Homo sapiens, Platelet, Plasma
Platelet [10] = assay: as §2; type: functional, cell-free
[11] = Antiplatelet activity in human platelet-rich plasma assessed as inhibition of arachidonic acid-induced platelet aggregation treated for 5 mins prior to arachidonic acid challenge for 5 mins by turbidimetric method; type: functional, cell-free; details: for IC50: Homo sapiens, Platelet, Plasma
Mus musculus [12] = assay: Prolongation of bleeding time in mouse at 30 uM/kg, po administered as single dose by tail excision method; type: ADME, organism-based; details: in vivo
Mus musculus [13] = assay: Prolongation of bleeding time in mouse at 30 uM/kg, po administered as single dose by tail excision method relative to control; type: ADME, organism-based; details: in vivo
Mus musculus [14] = assay: Antithrombotic activity in mouse assessed as protection against collagen-epinephrine-induced pulmonary thromboembolism at 30 uM/kg, po administered 60 mins prior to thrombotic challenge measured for up to 18 hrs post-drug dose; type: functional, organism-based
[15] = Antiplatelet activity in human platelet-rich plasma assessed as inhibition of collagen-induced platelet aggregation at 30 uM treated for 5 mins prior to collagen challenge for 5 mins by turbidimetric method; type: functional
Mus musculus [16] = assay: Antithrombotic activity in mouse assessed as protection against collagen-epinephrine-induced pulmonary thromboembolism at 30 uM/kg, po administered 60 mins prior to thrombotic challenge measured at >18 hrs post-drug dose; type: functional, organism-based
Mus musculus [17] = assay: Antithrombotic activity in mouse assessed as protection against collagen-epinephrine-induced pulmonary thromboembolism at 170 uM/kg, po administered 60 mins prior to thrombotic challenge; type: functional
Mus musculus [18] = assay: Prolongation of bleeding time in mouse at 170 uM/kg, po administered as single dose by tail excision method relative to control; type: ADME, organism-based; details: in vivo
Mus musculus [19] = assay: Antithrombotic activity in mouse assessed as protection against collagen-epinephrine-induced pulmonary thromboembolism at 170 uM/kg, po administered 60 mins prior to thrombotic challenge measured for up to 5 hrs post-drug dose; type: functional, organism-based
Mus musculus [20] = assay: Antithrombotic activity in mouse assessed as protection against collagen-epinephrine-induced pulmonary thromboembolism at 30 uM/kg, po administered 60 mins prior to thrombotic challenge measured for more than 24 hrs post-drug dose; type: functional, organism-based
Platelet [21] = assay: Antiplatelet activity in human platelet-rich plasma assessed as inhibition of convulxin-induced platelet aggregation treated for 5 mins prior to convulxin challenge for 5 mins by turbidimetric method; type: functional, cell-free
Platelet [22] = assay: Antiplatelet activity in human platelet-rich plasma assessed as inhibition of CRP-XL-induced platelet aggregation up to 500 uM treated for 5 mins prior to CRP-XL challenge for 5 mins by turbidimetric method; type: functional, cell-free

| SMILES | IC50 [4] | IC50 [9] | IC50 [11] | Activity (Mus musculus [12]) | inhibition (Platelet [1]) | inhibition (Platelet [2]) | Activity (Mus musculus [5]) | inhibition (Platelet [7]) | inhibition (INH) [4] | inhibition (Platelet [8]) | inhibition (INH) [9] | inhibition (Platelet [10]) | inhibition (INH) [11] | further results |
| --- | --- | --- | --- | --- | --- | --- | --- | --- | --- | --- | --- | --- | --- | --- |
| Cc1ccc(CN2C(=O)CC[C@H]2C(=O)N2CCC[C@H](CNC(=O)OC(C)(C)C)C2)cc1 | 37 µM |  |  |  | inactive | inactive | 50% | inactive |  |  |  |  |  | inhibition at 10 µM [3]: 30%; Activity (Mus musculus [6]): Active |
| Cc1ccc(CN2C(=O)CC[C@H]2C(=O)N2CCCC(CNC(=O)OC(C)(C)C)C2)cc1 (mixture of isomers) | 16 µM |  |  | 50% | inactive | inactive | 60% | inactive |  |  |  |  |  | fold change (FC) (Mus musculus [13]): 1.5; Activity (Mus musculus [14]): Active; inhibition at 30 µM [15]: 77.3%; Activity (Mus musculus [16]): inactive |
| CC(=O)Oc1ccccc1C(=O)O [ASPIRIN] |  |  | 5 µM |  |  |  |  |  |  |  |  |  |  | Activity (Mus musculus [17]): 40%; fold change (FC) (Mus musculus [18]): 2.2; Activity (Mus musculus [19]): Active |
| Cc1ccc(CN2CSC[C@H]2C(=O)N2CCC[C@@H](CNC(=O)OC(C)(C)C)C2)cc1 | 8 µM | 4.7 µM | > 100 µM | 50% | inactive | inactive | 50% | inactive | 74% | Dose-dependent effect | 96% | Dose-dependent effect | 25% |  |

Continued by falling IC50 [4], values first:

| IC50 [4] | IC50 [9] | IC50 [11] | Activity (Mus musculus [12]) | SMILES | inhibition (Platelet [1]) | inhibition (Platelet [2]) | Activity (Mus musculus [5]) | inhibition (Platelet [7]) | inhibition (INH) [4] | inhibition (Platelet [8]) | inhibition (INH) [9] | inhibition (Platelet [10]) | inhibition (INH) [11] | further results |
| --- | --- | --- | --- | --- | --- | --- | --- | --- | --- | --- | --- | --- | --- | --- |
| 6.6 µM |  |  |  | Cc1ccc(CN2C(=O)CC[C@H]2C(=O)N2CCC[C@@H](CNC(=O)OC(C)(C)C)C2)cc1 | inactive | inactive | 60% | inactive |  |  |  |  |  | Activity (Mus musculus [20]): Active; inhibition at 10 µM [3]: 49%; inhibition (Platelet [21]): inactive; inhibition (Platelet [22]): Active |
| 6.4 µM | 6.4 µM | > 100 µM | 43% | Cc1ccc(CN2C(=O)SC[C@H]2C(=O)N2CCC[C@@H](CNC(=O)OC(C)(C)C)C2)cc1 | inactive | inactive | 40% | inactive | 81% | Dose-dependent effect | 75% | Dose-dependent effect | 15% |  |
| 6 µM | 10.2 µM | > 100 µM | 50% | Cc1ccc(CN2C(=O)SC[C@H]2C(=O)N2CCC[C@H](CNC(=O)OC(C)(C)C)C2)cc1 | inactive | inactive | 50% | inactive | 83% | Dose-dependent effect | 64% | Dose-dependent effect | 8% |  |
